Reference: patent US6410792B1, “Amide derivatives and methods for using the same as selective neuropeptide Y receptor antagonists” (Bayer Corporation, priority 1997, dated 2002)
Where two headings read alike, the source gives them in different places.

What was measured:
Human NPY5 receptor = molecular target: T1, Human NPY5 receptor (Homo sapiens, UniProt Q15761); assay: Human NPY5 receptor binding assay ([125I]PYY, membrane protein); conditions: [125I]PYY binding, read-out: hNPY5 IC50
T1 sequence (Q15761 1-445): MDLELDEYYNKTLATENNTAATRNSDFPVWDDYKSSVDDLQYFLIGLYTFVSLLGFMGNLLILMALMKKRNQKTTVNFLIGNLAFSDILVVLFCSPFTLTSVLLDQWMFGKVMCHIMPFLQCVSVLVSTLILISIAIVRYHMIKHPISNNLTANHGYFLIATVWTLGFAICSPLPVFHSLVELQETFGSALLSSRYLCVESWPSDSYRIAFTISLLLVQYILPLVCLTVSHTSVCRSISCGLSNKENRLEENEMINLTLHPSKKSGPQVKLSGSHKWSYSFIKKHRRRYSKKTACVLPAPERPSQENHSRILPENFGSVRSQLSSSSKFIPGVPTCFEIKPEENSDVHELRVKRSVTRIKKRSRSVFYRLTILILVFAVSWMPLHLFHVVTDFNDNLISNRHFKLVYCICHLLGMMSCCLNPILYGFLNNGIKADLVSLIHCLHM
Experimental: C. Human and Rat NPY5 Receptor Binding Assays
Binding assays are performed on GF/C Millipore 96well plates pretreated with 0.02% polyethylenimine. The binding buffer is 25 mM Tris, 120 mM NaCl, 5 mM KCl, 1.2 mM KH2PO4, 2.5 mM CaCl2, 1.2 mM MgSO4, 0.1% BSA and 0.5 mg/ml bacitracin, pH 7.4. Samples consist of membrane protein, 75-100 pM [125I]PYY (porcine, NEN-DuPont) and drug dilution. Nonspecific binding is defined by 1 μM PYY. After a 2 hour incubation at room temperature with constant mixing, the samples are aspirated on a vacuum manifold, and rinsed with ice-cold binding buffer. The amount of radioactivity in each well is quantitated with either gamma counting or liquid scintillation.

Y2 receptor = molecular target: T2, Y2 receptor (Homo sapiens, UniProt P49146); assay: Y2 receptor binding assay ([125I]PYY, membrane protein); conditions: read-out: hNPY2 IC50
T2 sequence (P49146 1-381): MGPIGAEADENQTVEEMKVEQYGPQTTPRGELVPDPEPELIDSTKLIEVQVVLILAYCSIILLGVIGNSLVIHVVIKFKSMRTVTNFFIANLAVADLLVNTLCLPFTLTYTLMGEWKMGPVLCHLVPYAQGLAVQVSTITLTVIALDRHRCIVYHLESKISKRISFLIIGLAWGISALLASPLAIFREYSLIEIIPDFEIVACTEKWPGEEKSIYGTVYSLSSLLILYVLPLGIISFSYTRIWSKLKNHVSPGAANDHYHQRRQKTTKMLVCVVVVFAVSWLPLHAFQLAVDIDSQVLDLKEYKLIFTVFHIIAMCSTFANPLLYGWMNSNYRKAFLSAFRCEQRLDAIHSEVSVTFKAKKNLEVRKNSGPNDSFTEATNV
Experimental: B. Human Y2 and Y4/PP1 Receptor Binding Assays
Binding assays were performed on GF/C Millipore 96-well plates pretreated with 0.02% polyethylenimine. The binding buffer for rat Y2 binding is Krebs-Ringer bicarbonate (pH 7.4) containing 0.01% BSA and 0.005% bacitracin. Samples consist of membrane protein, 25 pM [1251]PYY and drug dilution. Nonspecific binding is defined by 1 μM NPY. The binding buffer for human Y4/PP1 binding consists of 137 mM NaCl, 5.4 mM KCl, 0.44 mM KH2PO4, 1.26 mM CaCl2, 0.81 mM MgSO4, 20 mM HEPES, 1 mM dithiothreitol, 0.1% bacitracin, 100 mg/l streptomycin sulfate, 1 mg/l aprotinin, 10 mg/ml soybean trypsin inhibitor and 0.3% BSA, pH 7.4. Samples consist of membrane protein, 50 pM human [1251]human PP (hPP: NEN DuPont, Boston, Mass.) and drug dilution. 1 μM hPP is used to define nonspecific binding.
After a 2 hour incubation at room temperature with constant mixing, the samples are aspirated on a vacuum manifold, and rinsed with ice-cold binding buffer. The amount of radioactivity in each well is quantitated with either gamma counting or liquid scintillation.

[1] = [125I]PYY binding, membrane protein

| Compound | IC50 (Human NPY5 receptor) | IC50 (Y2 receptor; [1]) | IC50 (Y2 receptor) |
| --- | --- | --- | --- |
| O=C(CN1CCC(O)CC1)Nc1ccc(C(=O)c2ccccc2)cc1 [Compound 42, N-(4-Benzoyl-phenyl)-2-(4-hydroxy-piperidin-1-yl)-acetamide] | 1.6 µM | > 5 µM | – |
| O=C(CNCC1CCNCC1)Nc1ccc(C(=O)c2ccccc2)cc1 [Compound 43, N-(4-Benzoyl-phenyl)-2-[(piperidin-4-ylmethyl)-amino]-acetamide] | > 10 µM | > 5 µM | – |
| N#CC1(c2ccccc2)CCN(CC(=O)Nc2ccc(C(=O)c3ccccc3)cc2)CC1 [Compound 44, N-(4-Benzoyl-phenyl)-2-(4-cyano-4-phenyl-piperidin-1-yl)-acetamide] | 0.093 µM | – | > 5 µM |
| O=C(CN1CCC(N2CCCC2)CC1)Nc1ccc(C(=O)c2ccccc2)cc1 [Compound 45, N-(4-Benzoyl-phenyl)-2-(4-pyrrolidin-1-yl-piperidin-1-yl)-acetamide] | 8.5 µM | > 5 µM | – |
| CNC1(C(N)=O)CCN(CC(=O)Nc2ccc(C(=O)c3ccccc3)cc2)CC1 [Compound 46, 1-[(4-Benzoyl-phenylcarbamoyl)-methyl]-4-methylamino-piperidine-4-carboxylic acid amide] | 0.005 µM | > 5 µM | – |
| NC(=O)C1(Nc2ccccc2)CCN(CC(=O)Nc2ccc(C(=O)c3ccccc3)cc2)CC1 [Compound 47, 1-[(4-Benzoyl-phenylcarbamoyl)-methyl]-4-phenylamino-piperidine-4-carboxylic acid amide] | 1.2 µM | > 5 µM | – |
| CCNC1(C(N)=O)CCN(CC(=O)Nc2ccc(C(=O)c3ccccc3)cc2)CC1 [Compound 48, 1-[(4-Benzoyl-phenylcarbamoyl)-methyl]-4-ethylamino-piperidine-4-carboxylic acid amide] | 0.02 µM | > 5 µM | – |
| CN(C)C1CCN(CC(=O)Nc2ccc(C(=O)c3ccccc3)cc2)CC1 [Compound 49, N-(4-Benzoyl-phenyl)-2-(4-dimethylamino-piperidin-1-yl)-acetamide] | 8.8 µM | > 5 µM | – |
| CC1CCN(CC(=O)Nc2ccc(C(=O)c3ccccc3)cc2)CC1 [Compound 50, N-(4-Benzoyl-phenyl)-2-(4-methyl-piperidin-1-yl)-acetamide] | 2.2 µM | > 5 µM | – |
| CC1(C)CCN(CC(=O)Nc2ccc(C(=O)c3ccccc3)cc2)CC1 [Compound 51, N-(4-Benzoyl-phenyl)-2-(4,4-dimethyl-piperidin-1-yl)-acetamide] | 3.3 µM | > 5 µM | – |
| O=C(CN1CCC(CCC2CCNCC2)CC1)Nc1ccc(C2CCCCC2)cc1 [Compound 54, N-(4-Cyclohexyl-phenyl)-2-[4-(2-piperidin-4-yl-ethyl)-piperidin-1-yl]-acetamide] | 7.3 µM | > 5 µM | – |
| O=C(CN1CCC(CCC2CCNCC2)CC1)Nc1ccc(C(=O)c2ccccc2)cc1 [Compound 55, n-(4-Benzoyl-phenyl)-2-[4-(2-piperidin-4-ylethyl)-piperidin-1-yl]-acetamide] | > 10 µM | > 5 µM | – |
| CC(=O)NCC1(c2ccccc2)CCN(CC(=O)Nc2ccc(C(=O)c3ccccc3)cc2)CC1 [Compound 56, 2-[4-(Acetylamino-methyl)-4-phenyl-piperidin-1-yl]-N-(4-benzoyl-phenyl)-acetamide] | 0.208 µM | > 5 µM | – |
| N#CC(c1ccccc1)C1CCN(CC(=O)Nc2ccc(C(=O)c3ccccc3)cc2)CC1 (centres unmarked) [Compound 57, N-(4-Benzoyl-phenyl)-2-[4-(cyano-phenyl-methyl)-piperidin-1-yl]-acetamide] | 0.005 µM | > 5 µM | – |
| O=C(CN1CCC2(CC1)C(=O)NCN2c1ccccc1)Nc1ccc(C(=O)c2ccccc2)cc1 [Compound 58, N-(4-Benzoyl-phenyl)-2-(4-oxo-1-phenyl-1,3,8-triaz-spiro[4.5]dec-8-yl)-acetamide] | 2 µM | > 5 µM | – |
| CC(O)C1CCN(CC(=O)Nc2ccc(C3CCCCC3)cc2)CC1 (centres unmarked) [Compound 59, N-(4-Cyclohexyl-phenyl)-2-[4-(1-hydroxy-ethyl)-piperidin-1-yl]-acetamide] | 0.65 µM | > 5 µM | – |
| O=C(CN1CCC(O)(CCCc2ccccc2)CC1)Nc1ccc(C(=O)c2ccccc2)cc1 [Compound 60, N-(4-Benzoyl-phenyl)-2-[4-hydroxy-4-(3-phenyl-propyl)-piperidin-1-yl]-acetamide] | 4.2 µM | > 5 µM | – |
| O=C(CN1CCC(O)(CCCc2ccccc2)CC1)Nc1ccc(C2CCCCC2)cc1 [Compound 61, N-(4-Cyclohexyl-phenyl)-2-[4-hydroxy-4-(3-phenyl-propyl)-piperidin-1-yl]-acetamide] | 9.5 µM | > 5 µM | – |
| O=C(CN1CCC(O)(c2cccc(C(F)(F)F)c2)CC1)Nc1ccc(C(=O)c2ccccc2)cc1 [Compound 63, N-(4-Benzoyl-phenyl)-2-[4-hydroxy-4-(3-trifluoromethyl-phenyl)-piperidin-1-yl]-acetamide] | 0.57 µM | > 5 µM | – |
| CN(C)C1(C(N)=O)CCN(CC(=O)Nc2ccc(C(=O)c3ccccc3)cc2)CC1 [Compound 64, 1-[(4-Benzoyl-phenylcarbamoyl)-methyl]-4-dimethylamino-piperidine-4-carboxylic acid amide] | 4.8 µM | > 5 µM | – |
| CCCOC1(c2ccccc2)CCN(CC(=O)Nc2ccc(C(=O)c3ccccc3)cc2)CC1 [Compound 66, N-(4-Benzoyl-phenyl)-2-(4-phenyl-4-propoxy-piperidin-1-yl)-acetamide] | 0.78 µM | > 5 µM | – |
| O=C(CN1CCC(CCCC2CCN(CCO)CC2)CC1)Nc1ccc(C(=O)c2ccccc2)cc1 [Compound 67, N-(4-Benzoyl-phenyl)-2-(4-{3-[1-(2-hydroxy-ethyl)-piperidin-4-yl]-propyl}-piperidin-1-yl)-acetamide] | > 10 µM | > 5 µM | – |
| O=C(CN1CCC(CCCC2CCN(CCO)CC2)CC1)Nc1ccc(C2CCCCC2)cc1 [Compound 68, N-(4-Cyclohexyl-phenyl)-2-(4-{3-[1-(2-hydroxy-ethyl)-piperidin-4-yl]-propyl}-piperidin-1-yl)-acetamide] | 9.7 µM | > 5 µM | – |
| CCC(=O)C1(c2ccccc2)CCN(CC(=O)Nc2ccc(C(=O)c3ccccc3)cc2)CC1 [Compound 69, N-(4-Benzoyl-phenyl)-2-(4-phenyl-4-propionyl-piperidin-1-yl)-acetamide] | 0.003 µM | > 5 µM | – |
| CC(O)C1CCN(CC(=O)Nc2ccc(C(=O)c3ccccc3)cc2)CC1 (centres unmarked) [Compound 70, N-(4-Benzoyl-phenyl)-2-[4-(1-hydroxy-ethyl)-piperidin-1-yl]-acetamide] | 3.7 µM | > 5 µM | – |
| Cc1ccc(C2(O)CCN(CC(=O)Nc3ccc(C(=O)c4ccccc4)cc3)CC2)cc1 [Compound 71, N-(4-Benzoyl-phenyl)-2-(4-hydroxy-4-p-tolyl-piperidin-1-yl)-acetamide] | 0.22 µM | > 5 µM | – |
| O=C(CN1CCC(C(=O)N2CCCCC2)(c2ccccc2)CC1)Nc1ccc(C2CCCCC2)cc1 [Compound 72, N-(4-Cyclohexyl-phenyl)-2-[4-phenyl-4-(piperidine-1-carbonyl)-piperidin-1-yl]-acetamide] | 1 µM | > 5 µM | – |
| O=C(CN1CCC(C(=O)N2CCCCC2)(c2ccccc2)CC1)Nc1ccc(C(=O)c2ccccc2)cc1 [Compound 73, N-(4-Benzoyl-phenyl)-2-[4-phenyl-4-(piperidine-1-carbonyl)-piperidin-1-yl]-acetamide] | > 5 µM | > 5 µM | – |
